Assay results reported in US20230355649A1, “FORMULATIONS OF ANTI-VIRAL COMPOUNDS” (priority 2020, published 2023).
≈ marks a conversion by molar mass, not a printed value. Read-outs that look alike come from different tables or passages of the source.

How the values were obtained:
[1] = system: human hepatocytes; assay: In vitro metabolism study of Remdesivir with human hepatocytes; assay type: in vitro ADME
Protocol: The Relative abundance (%) of metabolites post-incubation of Remdesivir (10 μM) was determined after culture with human hepatocytes (1.3 million cells/mL).
Samples were analysed by ultra-high performance liquid chromatography tandem mass spectrometry (UHPLC-MS/MS) with a quadrople time of flight mass spectrometer, for acquisition of high-resolution accurate mass data, with electrospray ionization incorporating in-line UV detection with a photodiode array detector.

[2] = set-up: species or system Dog (Canis familiaris)/Beagle; details: dog, in vivo
Excerpt: For both IV or oral (PO) administered doses, blood samples were collected to determine the presence of analytes in PBMCs. Further details are detailed in Table 14. [table]

[3] = system: SARS-CoV-2 infected cell lines; details: shown in the literature; cited from earlier work
[4] = in vivo, cited from earlier work
[5] = set-up: species or system Dog (Canis familiaris)/Beagle; details: male, beagle, dog, in vivo, 20 mg/kg
Protocol: An in vivo dog study in beagles was carried out to determine the pharmacokinetic (PK) profile of Remdesivir following 1) a single intravenous (IV) infusion of a control formulation and 2) an oral (PO) dose of an Example pharmaceutical composition ES040-72 according to the present invention.
For both IV or oral (PO) administered doses, plasma samples were collected over a period of 48 hours. Further details of the plasma collection are detailed in Table 13.

[6] = not told; cited from earlier work
[7] = physchem; assay type: physicochemical; details: aqueous with cosolvent or surfactant or cyclodextrin, read-out: Remdesivir Solubility
[8] = Remdesivir solubility in co-solvents; assay type: physicochemical
[9] = in vivo, iv; cited from earlier work
[10] = assay type: physicochemical
Protocol: In order to determine the stability of the prodrug Remdesivir at different pH, the stability of prodrug Remdesivir was tested over time at physiologically relevant pH of gastrointestinal media. The degradation of Remdesivir was determined by measuring the amount of unchanged Remdesivir using a suitable high pressure liquid chromatographic (HPLC) method and comparing the results against a pure reference sample of Remdesivir.

[11] = physchem; assay type: physicochemical
Excerpt: The solubility of Remdesivir was screened in a range of different acids to test the effect of pH and acidity on Remdesivir solubility.

[12] = Dissolution and solubility study, Type II dissolution apparatus; assay type: physicochemical; details: drug substance powder in hard-gelatin capsule without excipients; 15 mg in 300 mL 0.4% Tween 80 in water, 100 rpm
Protocol: The solubility and/or dissolution of Remdesivir over time was determined for various pharmaceutical compositions using a Type II dissolution apparatus. The dissolution of the liquid formulation filled into hard-gelatin capsule and “as-is”, i.e. without being filled into the capsule shell were compared to the release of the non-formulated powder drug substance filled into the capsule, as well as the latter in combination with the solubilizing complexing agent, SBEβCD. The dissolution profiles were compared to that of acetaminophen drug substance filled into a hard-gelatin capsule. Acetaminophen has over 80% bioavailability in practice. […] At appropriate time intervals, about 1 mL aliquots of the dissolution media were withdrawn, filtered and tested using a high-pressure chromatographic assay method for Remdesivir. The area under the peak for the drug at the standard elution time was then compared against that of an external reference standard of Remdesivir to determine the concentration of dissolved Remdesivir at any given time.
Specifically, the Example formulation 1 (ES040-36) comprising Remdesivir was tested both as a solution added directly into the dissolution medium without being filled into a capsule shell to represent the release from an oral solution and also as filled into a hard-gelatin capsule. […]

C[C@H](NP(=O)(O)OC[C@H]1O[C@@](C#N)(c2ccc3c(N)ncnn23)[C@H](O)[C@@H]1O)C(=O)O [GS-704277]
Relative abundance of analytes post-incubation with Remdesivir ([1]; 2 h, Remdesivir 10 μM, human hepatocytes 1.3 million cells/mL): 0.0%
Relative abundance of analytes post-incubation with Remdesivir ([1]; 6 h, Remdesivir 10 μM, human hepatocytes 1.3 million cells/mL): 2.4%
Relative abundance of analytes post-incubation with Remdesivir ([1]; 24 h, Remdesivir 10 μM, human hepatocytes 1.3 million cells/mL): 2.2%

N#C[C@@]1(c2ccc3c(N)ncnn23)O[C@H](CO)[C@@H](O)[C@H]1O [GS-441524]
detection in PBMC cells [2]: detected
in vitro activity against SARS-CoV-2 infected cell lines [3]: considerable in vitro activity
oral bioavailability ([4]; po): poor oral bioavailability
AUCinf ([5]; iv): 22000 ± 1950 ng·h/mL
AUClast ([5]; iv): 19800 ± 2510 ng·h/mL
AUCinf ([5]; po): 21700 ± 2170 ng·h/mL
AUClast ([5]; po): 21500 ± 2100 ng·h/mL
permeability through the intestinal membrane [6]: poor permeability

CCC(CC)COC(=O)[C@H](C)N[P@](=O)(OC[C@H]1O[C@@](C#N)(c2ccc3c(N)ncnn23)[C@H](O)[C@@H]1O)Oc1ccccc1 [Remdesivir]
solubility ([7]; Kolliphor EL (Polyoxyl 35 Castor Oil, Cremophor) 0.10 % w/w in water): 20 µg/mL (≈ 33.2 µM)
solubility ([7]; Poloxamer P407 0.07 % w/w in water): 6 µg/mL (≈ 9.96 µM)
solubility ([7]; TWEEN 20 (Polysorbate 20) 0.16 % w/w in water): 16 µg/mL (≈ 26.6 µM)
solubility ([7]; TWEEN 80 (Polysorbate 80) 0.30 % w/w in water): 33 µg/mL (≈ 54.8 µM)
solubility ([8]; oil or lipid, Solubility): 15900 µg/mL (≈ 26400 µM)
solubility ([8]; organic solvent or mixture, solvent Span 80, read-out: Solubility): 300 µg/mL (≈ 498 µM)
plasma concentration relative to its own EC50 [9]: rapidly declines to well below its own EC50
stability / degradation of Remdesivir in solution [10]: acceptable stability and minimal degradation
Relative abundance of analytes post-incubation with Remdesivir ([1]; human, 2 h, 10 μM): 4.8%
Relative abundance of analytes post-incubation with Remdesivir ([1]; human, 6 h, 10 μM): 0.1%
Relative abundance of analytes post-incubation with Remdesivir ([1]; human, 24 h, 10 μM): 0.7%
solubility ([11]; pH 0.5): 1690 µg/mL (≈ 2800 µM)
solubility ([11]; pH 0.5, aqueous buffer, Solubility): 950 µg/mL (≈ 1580 µM)
solubility ([11]; pH 0.98, simulated gastric fluid, Solubility): 2490 µg/mL (≈ 4130 µM)
solubility ([11]; pH 1, aqueous buffer, Solubility): 640 µg/mL (≈ 1060 µM)
solubility ([11]; pH 1.38, simulated gastric fluid, Solubility): 980 µg/mL (≈ 1630 µM)
solubility ([11]; pH 1.89, simulated gastric fluid, Solubility): 340 µg/mL (≈ 564 µM)
solubility ([11]; pH 2.91, aqueous buffer, Solubility): 5 µg/mL (≈ 8.3 µM)
solubility ([11]; pH 3.5, aqueous buffer, Solubility): 10 µg/mL (≈ 16.6 µM)
solubility ([11]; pH 4.74, aqueous buffer, Solubility): 1 µg/mL (≈ 1.66 µM)
solubility ([11]; pH 6.18, aqueous buffer, Solubility): 0.9 µg/mL (≈ 1.49 µM)
solubility ([11]; pH 6.72): 0 µg/mL
dissolution of Remdesivir [12]: very slow dissolution

CC(=O)Nc1ccc(O)cc1 [Acetaminophen, acetaminophen]
bioavailability [4]: over 80%
